The test system of series [1] is HeLa cells expressing FUS GFP. Kind of series: HeLa cell compound dose responses (FUS GFP, arsenate stress). It is filed as cell-based.
Series [2] has as its system HeLa cells. The series can be described thus: 15N lipoamide uptake by HeLa cells measured by NMR. The format is in vitro ADME. As to the method:
The concentration of lipoamide relative to protein required for an effect on condensate liquidity in vitro was higher than the EC50 on cells, on the order of 100 μM lipoamide with 1 μM FUS (FIGS. 1D-1E, FIGS. 5A-5E). In cells, FUS concentrations are high for a protein (low μM)^41 and the cellular EC50 was on the order of 10 μM (FIG. 2A, FIG. 3D). We also saw inverse effects of lipoamide on FUS-containing condensates in vitro (more, larger condensates) and in cells (fewer stress granules). To reconcile this difference and to understand the relevance of the effects in vitro in cells, we wanted to know the actual concentrations of compounds in cells. In principle, isotopic labelling allows direct monitoring of isotopically-labelled compounds even in complex environment through appropriate spectroscopy. To use this approach, ^15N-labelled lipoamide (FIG. 7A) was synthesised.
Uptake of ^15N lipoamide by cells from the medium was quantified by NMR following incubation of lipoamide at 37° C. for 1 h either in the absence or presence of HeLa cells (FIG. 7B). Cellular uptake was determined by calculating the difference between medium incubated with cells or without cells for combinations of either R-(+) or (±)-lipoamide and either unstressed or stressed cells (FIG. 7C). For one sample, stressed cells with R-(+)-lipoamide, we confirmed that strong signal from the cell fraction was consistent with uptake of a large proportion of lipoamide (FIG. 7C). Both R-(+) and ±-lipoamide measurements indicated uptake of 35±11% (n=3 and 2, respectively) of the lipoamide present in the medium. No significant difference was observed either for uptake of R-(+) compared to (±)-lipoamide or stressed compared to unstressed cells (FIG. 7D).
For analysis of ^15N lipoamide uptake by cells HeLa cells expressing FUS GFP were grown in 6 well plates to 10^6 cells/well in DMEM supplemented with 10% FCS. To simultaneously stress and treat cells, the medium was replaced with 0.6 ml medium supplemented with potassium arsenate and 100 μM ^15N racemic or R-(+)-lipoamide for 1 h at 37° C. High concentrations of compound were used to maximise the signal. […] Wells were prepared for all combinations of no compound (1% DMSO control), ^15N […] or ^15N R-(+)-lipoamide, with or without potassium arsenate and with or without cells. ^1H detected ^15N edited ^1H sensitivity enhanced HSQ was used to quantify ^15N lipoamide concentration (see Supplementary Information). Solvent, pH and temperature sensitivity of the primary amide proton chemical shifts were determined using dummy samples assembled from the appropriate solvent and added compounds.
^1H detected ^15N edited ^1H sensitivity enhanced HSQC NMR (referred to here as (^15N) ^1H) spectra were acquired on a narrow bore Varian solution state spectrometer operating with a fixed field strength of 14.1 T, equipped with a room-temperature probe.
The free induction decay was recorded for an acquisition time of 0.0624 and a sweep with of 8 kHz recorded over 1000 and a recovery delays of 1 s. […] The J coupling between the amide protons and the ^15N in H2O samples was determined to be 96 Hz, and so the transfer times of 1/4 J in the INEPT portions of the pulse sequence were set to 2.6 ms. […]

The subject of series [3] is HeLa, iPS and motor neuron cells. The series can be described thus: Tolerance by cells in culture. The format is cell-based.
A short description of series [4]: Stability of lipoamide in growth medium by NMR signal of the trans-amide proton. The format is physicochemical. As to the method: Integrated NMR signal intensity is proportional to concentration, provided conditions (including ionic strength, buffer composition, temperature and pH) are identical^73. Chemical exchange^74, expected as the amide protons in lipoamide should be labile in water, must also be accounted for. To ensure appropriate conditions were selected, (^15N) ^1H NMR spectra were obtained in different solvents (Chloroform-d, H2O, culture medium, medium with 3 mM KAsO2 and a 50:50 mixture of medium with 3 mM KAsO2 and EDTA-trypsin) (FIGS. 13B-13C). […] To determine temperature and pH sensitivity of the trans-amide proton signal (^15N) ^1H spectra of 1 mM lipoamide in medium were acquired at different temperatures (FIG. 13D) and pH (FIG. 13E). […] To determine whether lipoamide degrades over time the signal from the trans-amide proton was monitored at 37° C. and 10° C. for 10 h. […] At 10° C. and below pH 8.6 the integrated signal from the trans-amide proton resonance is therefore a good measure of ^15N lipoamide concentration.

The mark [5] stands for this setting: 1 h pre-treatment, 1 h arsenate stress.

Bounds are passed on as bounds.

For the molecule `NC(=O)CCCCC1CCSS1` (racemic) [lipoamide, 5-(1,2-dithiolan-3-yl)pentanamide], the “EC50 reducing stress granule number, compared among compounds” value in series [1] (1 h 1 mM arsenate stress) is listed as “comparable EC50”. Further, in series [1] (setting [5]), the “nuclear/cytoplasm FUS partition, dose response” value is “increased nuclear/cytoplasm FUS partition” and the “stress granule number, dose response” value was “reducing the number of stress granules”. Moreover, the EC50 in series [1] (Homo sapiens, HeLa FUS GFP, 1 h 1 mM arsenate stress, read-out: cellular EC50) was roughly 10 µM. Further, in series [2] (100 μM, 1 h, 37° C., stressed or unstressed HeLa cells), the “uptake of the lipoamide present in the medium” value worked out at 35%. Also, in series [2] (NMR signal from the cell sample), the “metabolism or chemical modification in cells” value was “no evidence for metabolism or any other chemical modification”. The “tolerance by HeLa, iPS and motor neuron cells in culture” value in series [3] is “well-tolerated”. For the same molecule, in series [4] (growth medium, 10° C.), the “time over which signal intensity is stable” value is greater than 10 h. Moreover, in series [4] (medium, 37° C., 10 h), the “trans-amide proton signal intensity over time” value is given as “decayed slowly”.

For `O=C(O)CCCCC1CCSS1` (racemic) [lipoic acid, 5-(1,2-dithiolan-3-yl)pentanoic acid], the “EC50 reducing stress granule number, compared among compounds” value in series [1] (1 h 1 mM arsenate stress) was “comparable EC50”.

As a reminder, the EC50 is the concentration at which the effect is half-maximal.
